In patent publication US20050176641A1, “Long lasting natriuretic peptide derivatives” (CONJUCHEM, INC., priority 2000, published 2005):
pEC50, pKi: −log10 of the molar value. Like-named read-outs stand apart in the source and are kept apart here. Positions of bridges follow the written chain, without caps; N, C: chain ends. Residues, ends and D or L forms follow the SMILES beside them.

Columns and labels:
[1] = biological target: T1, natriuretic peptide receptors with guanylate cyclase activity (Homo sapiens, UniProt P16066); assay: cGMP production in human Hela cells; assay type: cell-based; details: for EC50: human Hela cells, one hour incubation, with 3-isobutyl-1-methylxanthine, read-out: EC50 (M), increase of cGMP production
T1 construct: Hela cells express high levels of natriuretic peptide receptors with guanylate cyclase activity; endogenous in cells; host or cells: HeLa (human cervix epithelial adenocarcinoma)
T1 sequence (P16066 33-1061): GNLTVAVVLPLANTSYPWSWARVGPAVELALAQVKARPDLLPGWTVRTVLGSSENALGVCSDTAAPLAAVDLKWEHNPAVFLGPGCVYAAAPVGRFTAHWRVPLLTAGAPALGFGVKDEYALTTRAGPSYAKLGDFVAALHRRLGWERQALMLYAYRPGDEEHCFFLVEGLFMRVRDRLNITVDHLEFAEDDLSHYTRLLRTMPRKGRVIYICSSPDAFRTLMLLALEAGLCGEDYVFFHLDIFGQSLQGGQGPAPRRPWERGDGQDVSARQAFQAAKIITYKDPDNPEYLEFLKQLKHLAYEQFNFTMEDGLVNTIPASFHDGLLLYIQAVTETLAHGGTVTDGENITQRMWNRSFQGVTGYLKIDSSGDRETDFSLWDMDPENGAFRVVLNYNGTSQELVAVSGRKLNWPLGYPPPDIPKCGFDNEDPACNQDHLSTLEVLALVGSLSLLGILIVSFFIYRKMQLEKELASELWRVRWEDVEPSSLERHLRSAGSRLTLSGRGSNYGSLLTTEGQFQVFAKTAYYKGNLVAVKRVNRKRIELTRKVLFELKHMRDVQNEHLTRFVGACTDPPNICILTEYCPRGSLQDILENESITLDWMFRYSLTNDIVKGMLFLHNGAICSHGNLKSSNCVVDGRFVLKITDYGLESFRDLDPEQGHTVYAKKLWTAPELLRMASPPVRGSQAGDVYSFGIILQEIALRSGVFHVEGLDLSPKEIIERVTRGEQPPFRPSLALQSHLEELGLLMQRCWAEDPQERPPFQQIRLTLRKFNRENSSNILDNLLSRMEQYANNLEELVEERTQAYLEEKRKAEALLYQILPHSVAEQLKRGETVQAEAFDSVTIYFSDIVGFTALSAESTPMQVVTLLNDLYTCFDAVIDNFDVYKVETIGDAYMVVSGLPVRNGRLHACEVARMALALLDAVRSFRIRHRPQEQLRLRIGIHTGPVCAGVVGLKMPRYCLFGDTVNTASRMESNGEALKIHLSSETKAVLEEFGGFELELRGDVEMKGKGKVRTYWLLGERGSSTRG
Description: For in vitro activity studies, a human cervix epithelial adenocarcinoma cell line was used. Hela cells express high levels of natriuretic peptide receptors with guanylate cyclase activity.
One day prior cGMP experiments, cells are seeded in 48-wells plate (5×10^4 cells per well) and incubated overnight. The day of the experiment cells are washed twice in serum-free media and then incubated with or without NP derivatives or native ANP or BNP for one hour, in presence of 3-isobutyl-1-methylxanthine to prevent cGMP degradation. Incubation is terminated by removing the assay medium and by adding HCl to the cells for 10 minutes. The supernatants were then collected, centrifuged and cGMP levels are assessed using the direct cGMP EIA kit from Sigma.

NPR receptors = assay: Binding to guinea pig adrenal gland membranes by displacement of 125I-rANP
Description: The potency of NP derivatives is evaluated as their ability to bind NPR receptors in guinea pig adrenal glands and to elevate cGMP levels in a rat primary lung fibroblasts assay. Others cell lines can be used to perform these in vitro assays such as aortic smooth muscle cells, glomeruli mesangial cells and adrenal cells. Human, rat, and ginea pig cell lines or other species cell lines can be used with a preference for human cell lines.
Membranes for binding studies are prepared as follow. Adrenal glands were collected from anesthetized normal Duncan Hartley Guinea Pig and homogenized using a polytron in 50 mM Tris-HCl buffer containing 150 mM NaCl, 5 mM MgCl2, 5 mM MnCl2; pH 7.4 at 25° C. The homogenate was centrifuged for 10 minutes at 39,000×g (4° C.). The pellet was resuspended and washed. Finally, the membranes were resuspended in the same buffer supplemented with 1 mM Na2EDTA+0.2% BSA. Protein concentration is measured using the BCA protein assay kit (Pierce). The binding assay is done by incubation of membranes with 0.016 nM ^125I-rANF and increasing concentrations of either NP peptides or NP derivatives (10^−5-10^−11 M) for 60 minutes at 4° C. All assays were done in duplicate. Separation of bound and free radioactive rANF was achieved by rapid filtration through polyethylenimine-treated Whatman GF/C filters soaked in assay buffer. Filters were washed, dried and counted for radioactivity in a gamma-counter.

[2] = literature values; cited from earlier work

CC[C@H](C)[C@@H]1NC(=O)[C@H](CCCNC(=N)N)NC(=O)[C@H](CC(=O)O)NC(=O)[C@H]([C@@H](C)CC)NC(=O)[C@H](CCCNC(=N)N)NC(=O)CNC(=O)CNC(=O)[C@H](Cc2ccccc2)NC(=O)[C@@H](N)CSSC[C@@H](C(=O)N[C@@H](CC(N)=O)C(=O)N[C@@H](CO)C(=O)N[C@@H](Cc2ccccc2)C(=O)N[C@@H](CCCNC(=N)N)C(=O)N[C@@H](Cc2ccc(O)cc2)C(N)=O)NC(=O)CNC(=O)[C@H](CC(C)C)NC(=O)CNC(=O)[C@H](CO)NC(=O)[C@H](CCC(N)=O)NC(=O)[C@H](C)NC(=O)CNC1=O [Example 13] (H-CFGGRIDRIGAQSGLGCNSFRY-NH2; disulfide 1-17)
EC50 [1]: 2.72e-08 M

CC[C@H](C)[C@@H]1NC(=O)[C@H](CCCNC(=N)N)NC(=O)[C@H](CC(=O)O)NC(=O)[C@H](CCSC)NC(=O)[C@H](CCCNC(=N)N)NC(=O)CNC(=O)CNC(=O)[C@H](Cc2ccccc2)NC(=O)[C@@H](N)CSSC[C@@H](C(=O)N[C@@H](CC(N)=O)C(=O)N[C@@H](CO)C(=O)N[C@@H](Cc2ccccc2)C(=O)N[C@@H](CCCNC(=N)N)C(=O)N[C@@H](Cc2ccc(O)cc2)C(N)=O)NC(=O)CNC(=O)[C@H](CC(C)C)NC(=O)CNC(=O)[C@H](CO)NC(=O)[C@H](CCC(N)=O)NC(=O)[C@H](C)NC(=O)CNC1=O [Example 17] (H-CFGGRMDRIGAQSGLGCNSFRY-NH2; disulfide 1-17)
EC50 [1]: 2.21e-08 M

CC[C@H](C)[C@@H]1NC(=O)[C@H](CCCNC(=N)N)NC(=O)[C@H](CC(=O)O)NC(=O)[C@H](CCSC)NC(=O)[C@H](CCCCN)NC(=O)[C@H](CCCNC(=N)N)NC(=O)CNC(=O)[C@H](Cc2ccccc2)NC(=O)[C@@H](NC(=O)CNC(=O)[C@H](CO)NC(=O)CNC(=O)[C@H](CCC(N)=O)NC(=O)[C@@H](NC(=O)[C@H](CCSC)NC(=O)[C@H](CCCCN)NC(=O)[C@@H]2CCCN2C(=O)[C@@H](N)CO)C(C)C)CSSC[C@@H](C(=O)N[C@@H](CCCCN)C(=O)N[C@H](C(=O)N[C@@H](CC(C)C)C(=O)N[C@@H](CCCNC(=N)N)C(=O)N[C@@H](CCCNC(=N)N)C(=O)N[C@@H](Cc2c[nH]cn2)C(N)=O)C(C)C)NC(=O)CNC(=O)[C@H](CC(C)C)NC(=O)CNC(=O)[C@H](CO)NC(=O)[C@H](CO)NC(=O)[C@H](CO)NC(=O)[C@H](CO)NC1=O [Example 21]
pKi (NPR receptors; displacement of 125I-ANF, read-out: apparent inhibition constant (Ki value)): 8.32
pKi (NPR receptors; displacement of 125I-rANF, text gives the same Ki in M, read-out: KI (inhibition constant)): 8.31
EC50 (NPR receptors; read-out: EC50 (M), concentration at 50% of inhibition, displacement of 0.016 nM 125I-rANF, 60 minutes at 4° C.): 5.41e-09 M
pEC50 [1]: 7.70

human BNP: native human Brain Natriuretic Peptide, 32 amino acid peptide
in vivo half-life [2]: 12.7 min
